According to patent US7875270B2, “Treatment solution and method for preventing posterior capsular opacification by selectively inducing detachment and/or death of lens epithelial cells” (Abbott Medical Optics Inc., priority 2002, dated 2011):

Tests used:
[1] = system: human lens epithelial cells (LECs); test: Confluent LEC monolayers exposed to solutions; MTT cell viability and microscopy; assay type: cell-based
[2] = system: human retinal-pigmented epithelial cells (RPECs); test: Confluent RPEC monolayers exposed to solutions; MTT cell viability; assay type: cell-based
Experimental: (§1) As described below, the confluent monolayers of LECs, CEDCs, and RPECs grown in 96-well flat-bottom plates are exposed to varying concentrations of NaCl (an osmolyte) solution. Two hundred μl of NaCl solution (prepared as described below) are added to each well at concentrations of 137 mM, 170 mM, 340 mM, 680 mM, 1360 mM and 2000 mM NaCl, respectively. The solutions have a pH of 8.0±0.4. The concentrations of NaCl correspond to final osmolarities of about 285 to 4000 mOsm/L, respectively.
(§2) The primary and first passages of human lens epithelial cells, human corneal endothelial cells, and human retinal-pigmented epithelial cells are cultured. The LECs, the CEDCs, and the RPECs are isolated from post-mortem eyes by using standard techniques of cell isolation and enzyme digestion. See Uebersax E D, Grindstaff R D and Defoe D M Exp Eye Res. 2000 March; 70(3): 381-90; Wagner L M, Saleh S M, Boyle D J, and Takemoto D J. Mol Vis. 2002 Mar. 14; 8: 59-66; Cammarata P R, Schafer G, Chen S W, Guo Z, and Reeves R E. Invest Ophthalmol Vis Sci. 2002 February; 43(2): 425-33; Rakic J M, Galand A, and Vrensen G F. Exp Eye Res. 2000 November; 71(5): 489-94. LECs and CEDCs are cultured in Eagle's minimum essential medium (MEM). RPECs are cultured in Ham's F10 medium, supplemented with 2 mM glutamine, 25 mmol/L Hepes, pH 7.4, 10 U/mL penicillin, and 10 μg/mL streptomycin and 15% heat-inactivated foetal cow serum (FCS). The primary cultured LECs, CEDCs, and RPECs are sub-cultured at 10^4 cells/wells in 96-well flat-bottom plates until they reached 90 to 100% confluence. These cells are grown to confluence in an incubator with a humidified atmosphere of 5% CO2 at 37° C. The cells are kept in a confluent state for overnight before assays.
(§3) After treatment, the treated cells are thoroughly washed, and cultured with fresh media for twelve hours before cell viability is assessed. The capability of these cells to survive at the indicated hypertonic stress levels is assessed by an MTT assay 12-24 hours post-exposure.
(§4) MTT assay is an assay to assess mitochondria function, performed as described by Mosmann (Mosmann, T. J Immunol Methods. 1983 Dec. 16; 65(1-2): 55-63. The tetrazolium salt 3-(4,5-dimethylthiazol-2-yl)-2,5-diphenyl tetrazolium bromide (MTT; supplied by Sigma Chemical Co.) is dissolved in Phosphate's Balanced Salt (PBS) Solutions at 5 mg/ml and sterilized by passage through a 0.22 μm Millipore filter. MTT stock solution is added to growth media at a ratio of 1 to 10. Cells are incubated with this growth media for three to four hours. In cells that are alive at the time of adding MTT, mitochondrial dehydrogenase cleaves the tetrazolium ring into a dark blue formazan reaction product, which builds up in the cell. MTT-reacted cultures are observed under brightfield microscopy without further processing. Cells in each well are scored as MTT-positive if they are completely filled with reaction product (in the case of unattached cells) or contain many formazan crystals emanating from multiple foci (in the case of attached or spread cells). MTT-reacted cultures are then lysised by dimethyl sulfoxide (DMSO) and read in a Microplate Reader to obtain a measure of cell viability.
Confluent monolayers of RPECs are prepared as described in Example 1. These cells are exposed for ten minutes to 200 μl/well of the solutions comprising increasing concentrations of NaCl (137 mM, 170 mM, 340 mM, 680 mM, 1360 mM and 2000 mM) at varying pH (8.4±0.5 and 10.6±0.5). The solutions of NaCl are prepared as described in Example 1. The pH of the solutions is adjusted with additions of 1 μl and 5 μl of 5N NaOH as described Example 3.
Confluent monolayers of LECs and RPECs are prepared as described in Example 1. […]
Confluent monolayers of LECs, CEDCs and RPECs are prepared as described in Example 1. […]
To assess whether there is any side effect of this treatment on other ocular cells, confluent monolayers of LECs, CEDCs and RPECs are prepared as described in Example 1. […]

[3] = system: human corneal endothelial cells (CEDCs); test: Confluent CEDC monolayers exposed to solutions; MTT cell viability; assay type: cell-based
Experimental: as §1
as §2, with “The primary cultured LECs, CEDCs, and RPECs are sub-cultured at 10^4 cells/wells in 96-well flat-bottom plates until they reached 90 to 100% confluence. These cells are grown to confluence in an incubator with a humidified atmosphere of 5% CO2 at 37° C. The cells are kept in a confluent state for overnight before assays.” left out
as §3
as §4, with “MTT-reacted cultures are observed under brightfield microscopy without further processing.” left out, “viability. […]” for “viability.”

[4] = system: human lens epithelial cells (LECs); test: Confluent LEC monolayers exposed to solutions; MTT cell viability and microscopy; assay type: cell-based; remark: listed apart in the source
Experimental: as §1, §2, §3, §4
Confluent monolayers of LECs are given three washes with Hank's Balanced Salt Solutions (HBSS) to remove FCS before the experiment. LECs are prepared in 96-well culture plates as in Example 1. These cells are exposed for about five to ten minutes to 200 μl/well of treatment solutions comprising increasing concentrations (˜135 mM, ˜170 mM, ˜340 mM, ˜680 mM, ˜1360 mM and ˜2000 mM) of NaCl (an osmolyte) in the presence and the absence of 30 μM frusemide (a co-transport interference agent, an ion transport mechanism interference agent). The treatment solutions have a pH of 8.0±0.4. After treatment, the treated cells are thoroughly washed, and cultured with fresh media. The viability of the treated LECs was determined by MTT assay 12-24 hours post-treatment as described in Example 1. […]

primary cultured LECs = test: LECs on glass cover-slip, inverted phase-contrast microscopy; assay type: cell-based, human; conditions: ≦200 mM NaCl, 90 μM frusemide, 3 μl of 5N NaOH
Experimental: Confluent monolayers of LECs are prepared as described in Example 1 and grown on a glass cover-slip instead of 96-well flat bottom culture plates. The LECs are then thoroughly washed to remove serum.
Ten milliliters (10 mL) of the treatment solution containing ≦200 mM NaCl, 90 μM frusemide and 3 μl of 5N NaOH is prepared in a deep 35 mm petri-dish.
The cover-slips are then transferred to the petri-dish containing the treatment solution and are kept in the treatment solution for five to ten minutes. The treatment solution is then poured away, and the cover-slips along with detached LECs are thoroughly rinsed with a fresh HBSS solution with slight pressure using an aspiration/irrigation probe. After immediate examination and photography using inverted phase contrast microscope, the LECs are kept in culture for seven days with fresh medium to examine whether any residual cells would survive.

[5] = hypertonic stress of about 1380 mM NaCl, pH 8.0±0.4, MTT 12-24 hours post-exposure
[6] = 137-2000 mM NaCl, within about five to ten minutes after addition
[7] = ≧200 mM NaCl, 90 μM frusemide, 3 μl of 5N NaOH, about ten minutes

`[Cl-].[Na+]` [NaCl, sodium chloride] was tested, and the “LECs sensitivity to hypertonic stress” value ([1]; 170 and 340 mM NaCl, pH 8.0 to 10.6, ten minutes) was “increases with increasing pH and increasing NaCl concentrations”, the “LEC detachment and bursting” value ([1]; 170 or 340 mM NaCl, pH about 8.9±0.8) was “detach effectively from their substrates but do not burst significantly” and the “LECs burst and die” value ([1]; 170 or 340 mM NaCl, pH about 10.6±0.5, within five minutes) was “greater than seventy five”. For the same compound, the “LECs survive (cell viability)” value [1, 5] was “about forty”, the LECs survive ([1]; rapid hypertonic shock with 1380 mM NaCl, absence of frusemide, pH 8.0±0.4) was “about 40%” and the “survival level of RPECs” value ([2]; 137-2000 mM NaCl, pH raised from 8.4±0.5 to 10.6±0.5, ten minutes) was “dramatic decrease in the survival level”. For the same compound, the “shrinkage and loss of adhesion in RPECs” value [2, 6] was “not seen as significantly”, the “RPECs survive (cell viability)” value [2, 5] was “more than eighty” and the “shrinkage and loss of adhesion in CEDCs” value [3, 6] was “not seen as significantly”. For the same compound, the “CEDCs survive (cell viability)” value [3, 5] was “more than eighty”, the “LEC shrinkage and loss of adhesion” value [4, 6] was “began to shrink, round up and lose adhesion from the monolayer in a dose-dependent manner” and the “survival capability of the LECs (hypertonic shock NaCl concentration)” value ([4]; absence of frusemide) was 200 mM.
With `NS(=O)(=O)c1cc(C(=O)O)c(NCc2ccco2)cc1Cl` [frusemide] the “LEC appearance at five minutes post-treatment” value (primary cultured LECs) was “rounded up and separating from their substrate”, the “LEC appearance at ten minutes post-treatment and after washing” value (primary cultured LECs) was “substantially clear substrate” and the “survival rate for LECs” value [1, 7] was “less than ten”. For the same compound, the “RPECs removed or killed” value ([2]; between 30 μM and 90 μM frusemide, ≦200 mM NaCl, 3 μl of 5N NaOH) was “few RPECs are removed or killed”, the RPECs survived [2, 7] was “eighty” and the CEDCs survived [3, 7] was “more than seventy”. The “LECs shrink, are lost or die” value ([4]; 10 μM frusemide, ≦200 mM NaCl, 3 μl of 5N NaOH, about ten minutes) was “more than 50%”, the LECs survive ([4]; 30 μM frusemide, rapid hypertonic shock with 340 mM NaCl, pH 8.0±0.4) was “almost no cells survive” and the “LECs removed or killed” value ([4]; between 30 μM and 120 μM frusemide, ≦200 mM NaCl, 3 μl of 5N NaOH) was > 90%. The “survival capability of the LECs (hypertonic shock NaCl concentration)” value ([4]; presence of 30 μM frusemide) was 170 mM.
